Consider 64 compounds from patent publication US10815222B2, “Compounds for use in the treatment of kinetoplastid infection” (C.N.C.C.S. S.c.a.r.l. COLLEZIONE NAZIONALE DEI COMPOSTI …, priority 2016, dated 2020).

SMILES strings stand for the structures.

The test system of one experiment is Bloodstream form of Trypanosoma brucei, strain Lister 427. Put plainly: Trypanosoma brucei growth inhibition assay (CellTiter-Glo, 24 h). The format is cell-based. The conditions noted are these: T. Brucei Growth Inibition Assay, class symbols; read-out: T. Brucei GI EC50. The method, then:
Bloodstream form of Trypanosoma brucei, strain Lister 427 (provided by Prof. Miguel Navarro, Instituto de Parasitologia y Biomedicina “Lopez-Neyra” Avda. Conocimiento S/N Parque Tecnologico Ciencias de la Salud—Spain; ref. Navarro M. and Cross G. A. M. Molecular and Cellular Biology, 1996, Vol. 16, No. 7, pp. 3615-3625) were grown in IMDM Iscove's Modified Dulbecco's Medium (SIGMA #17633) supplemented with: 3.024 g/l sodium bicarbonate, hypoxanthine 1 mM, thymidine 0.16 mM, bathocuprione sulfonic acid 0.05 mM, cysteine 1.5 mM, ß-mercaptoethanol […] and 10% foetal bovine serum (heat-inactivated at 56° C. for 30 min). Parasites were grown at 37° C. in flasks with vented caps in a 5% CO2 incubator to a maximum cell density of about 2×10^6/ml and diluted every two-three days.
The compounds of the invention were dissolved in DMSO and transferred to assay plates by acoustic droplet ejection (ATS-100, EDC Biosystems, USA) in order to obtain an appropriate concentration and to keep the concentration of DMSO below or equal to 0.25% in the final assay volume of 30 μL. 1500 parasites resuspended in 30 μL of culture medium were then transferred to each well of a 384-well plate.
After an incubation period of 24 hours at 37° C., each well is added 15 μl of CellTiter-Glo® Reagent (Promega) and incubated at room temperature. 5-10 min post incubation, the plate is read using a luminometer (ViewLux®). A known inhibitor of the growth of T. brucei was used as the reference positive control.
With `O=C(Cc1c[nH]c2ccc(O)cc12)N1CCN(CCc2ccccc2)CC1c1ncc(-c2ccc3ccccc3c2)[nH]1` (stereo not shown), the EC50 was 1.01 to 5 µM. Turning to `COc1ccc2nc(C(F)(F)F)n(CC(=O)N3CC[C@@H](N(C)CC4CCOC4)C[C@H]3c3ncc(-c4cc5ccccc5nc4OC)[nH]3)c2c1` (stereo partly shown), the EC50 was below 0.1 µM.

For `COc1nc2ccccc2cc1-c1cnc(C2CN(CC3CCOC3)CCN2C(=O)CCc2n[nH]c3c2CCCC3)[nH]1` (stereo not shown), the EC50 is 1.01 to 5 µM.

The experiment is the same for the next values; noted with them: Trypanosoma brucei; T. Brucei Growth Inibition Assay, class symbols; read-out: T. Brucei GI EC50.
Turning to `COc1nc2ccccc2cc1-c1cnc(C2CN(CC3CCOC3)CCN2C(=O)CS(=O)(=O)c2ccccc2)[nH]1` (stereo not shown), the EC50 is 1.01 to 5 µM. On the same count and under the same terms, then `COc1nc2ccccc2cc1-c1cnc(C2CN(C)CCN2C(=O)Cc2c[nH]c3ncccc23)[nH]1` (stereo not shown), with 1.01 to 5 µM; and `COc1nc2ccccc2cc1-c1cnc(C2CN(CC3CCOC3)CCN2C(=O)Cc2sc3ccccc3c2C)[nH]1` (stereo not shown), with 0.1 to 0.5 µM. On to `COc1nc2ccccc2cc1-c1cnc(C2CN(CC3CCOC3)CCN2C(=O)Cc2ccc(N3CCNC3=O)cc2)[nH]1` (stereo not shown), for which the EC50 lay in the range of 1.01 to 5 µM. Regarding `CCC(=O)CCC(=O)N1CCN(C(=O)Cc2c(C)[nH]c3ccc(OC)cc23)C(c2ncc(-c3ccc4ccccc4c3)[nH]2)C1` (stereo not shown), the EC50 lay within 0.1 to 0.5 µM. The same measure, in the same setting: for `COc1nc2ccccc2cc1-c1cnc(C2CN(CC3CC3)CCN2C(=O)CC2=C(C)NC3C=CC=CC23)[nH]1` (stereo not shown) the value was 0.1 to 0.5 µM; for `Cc1csc(CC(=O)N2CCN(CC3CC3)CC2c2ncc(-c3ccc4ccccc4c3)[nH]2)n1` (stereo not shown), 1.01 to 5 µM; for `O=C(Cc1c[nH]c2ccc(O)cc12)N1CCN(CC2CC2)CC1c1ncc(-c2ccc3ccccc3c2)[nH]1` (stereo not shown), 1.01 to 5 µM. On to `Cn1cc(CC(=O)N2CCN(CC3CC3)CC2c2ncc(-c3ccc4ccccc4c3)[nH]2)c2ccccc21` (stereo not shown), for which the concentration for a half-maximal effect (EC50) was 1.01 to 5 µM. Turning to `Cc1[nH]c2ccccc2c1CC(=O)N1CCN(CC2CC2)CC1c1ncc(-c2ccc3ccccc3c2)[nH]1` (stereo not shown), the EC50 is 0.1 to 0.5 µM.

Consider `O=C(Cc1n[nH]c2ccccc12)N1CCN(CC2CC2)CC1c1ncc(-c2ccc3ccccc3c2)[nH]1` (stereo not shown), for which the EC50 was in the range of 1.01 to 5 µM. As for `COc1nc2ccccc2cc1-c1cnc(C2CN(Cc3ccccc3)CCN2C(=O)CC2=C(C)NC3C=CC=CC23)[nH]1` (stereo not shown), the half-maximal effective concentration (EC50) was 0.1 to 0.5 µM. Consider `O=C(Cc1c[nH]c2ccc(O)cc12)N1CCN(Cc2ccccc2)CC1c1ncc(-c2ccc3ccccc3c2)[nH]1` (stereo not shown), for which the EC50 fell in the range of 1.01 to 5 µM. Regarding `Cn1cc(CC(=O)N2CCN(Cc3ccccc3)CC2c2ncc(-c3ccc4ccccc4c3)[nH]2)c2ccccc21` (stereo not shown), the EC50 lay within 1.01 to 5 µM.

On to `O=C(Cc1n[nH]c2ccccc12)N1CCN(Cc2ccccc2)CC1c1ncc(-c2ccc3ccccc3c2)[nH]1` (stereo not shown), for which the EC50 fell in the range of 1.01 to 5 µM. Consider `Cc1[nH]c2ccccc2c1CC(=O)N1CCN(Cc2ccccc2)CC1c1ncc(-c2ccc3ccccc3c2)[nH]1` (stereo not shown), for which the EC50 fell in the range of 1.01 to 5 µM. `Cc1csc(CC(=O)N2CCN(Cc3ccccc3)CC2c2ncc(-c3ccc4ccccc4c3)[nH]2)n1` (stereo not shown): the half-maximal effective concentration (EC50) is 1.01 to 5 µM. For the compound `CCCCCCN1CCN(C(=O)CC2=C(C)NC3C=CC=CC23)C(c2ncc(-c3cc4ccccc4nc3O)[nH]2)C1` (stereo not shown), the EC50 fell in the range of 1.01 to 5 µM. Turning to `CCCCCCN1CCN(C(=O)CC2=C(C)NC3C=CC=CC23)C(c2ncc(-c3cc4ccccc4nc3OC)[nH]2)C1` (stereo not shown), the EC50 fell in the range of 0.1 to 0.5 µM. The same measure, in the same setting: for `CCCCCCN1CCN(C(=O)Cc2n[nH]c3ccccc23)C(c2ncc(-c3ccc4ccccc4c3)[nH]2)C1` (stereo not shown) the value was 1.01 to 5 µM; for `CCCCCCN1CCN(C(=O)Cc2c(C)[nH]c3ccccc23)C(c2ncc(-c3ccc4ccccc4c3)[nH]2)C1` (stereo not shown), 0.51 to 1 µM. Same read-out and setting: for `CCCCCCN1CCN(C(=O)Cc2c[nH]c3ccc(O)cc23)C(c2ncc(-c3ccc4ccccc4c3)[nH]2)C1` (stereo not shown) the value was 1.01 to 5 µM. Take `CCCCCCN1CCN(C(=O)Cc2cn(C)c3ccccc23)C(c2ncc(-c3ccc4ccccc4c3)[nH]2)C1` (stereo not shown): the EC50 lay within 1.01 to 5 µM. Regarding `CCCCCCN1CCN(C(=O)Cc2c[nH]c3cccnc23)C(c2ncc(-c3ccc4ccccc4c3)[nH]2)C1` (stereo not shown), the EC50 was in the range of 1.01 to 5 µM. As to `CN1CCN(C(=O)Cc2c[nH]c3ncccc23)C(c2ncc(-c3ccc4ccccc4c3)[nH]2)C1` (stereo not shown), the EC50 was 1.01 to 5 µM. Take `Cn1cc(CC(=O)N2CCN(CC3CCOC3)CC2c2ncc(-c3ccc4ccccc4c3)[nH]2)c2ccccc21` (stereo not shown): the EC50 was 0.1 to 0.5 µM. Regarding `CN1CCN(C(=O)Cc2cn(C)c3ccccc23)C(c2ncc(-c3ccc4ccccc4c3)[nH]2)C1` (stereo not shown), the 50% effective concentration (EC50) lay in the range of 1.01 to 5 µM.

On to `O=C(Cc1n[nH]c2ccccc12)N1CCN(CCc2ccccc2)CC1c1ncc(-c2ccc3ccccc3c2)[nH]1` (stereo not shown), for which the EC50 was 1.01 to 5 µM. Same read-out and setting: for `O=C(Cc1n[nH]c2ccccc12)N1CCN(CC2CCOC2)CC1c1ncc(-c2ccc3ccccc3c2)[nH]1` (stereo not shown) the value was 1.01 to 5 µM; for `Cc1[nH]c2ccccc2c1CC(=O)N1CCN(CCc2ccccc2)CC1c1ncc(-c2ccc3ccccc3c2)[nH]1` (stereo not shown), 0.51 to 1 µM; for `Cc1csc(CC(=O)N2CCN(CCc3ccccc3)CC2c2ncc(-c3ccc4ccccc4c3)[nH]2)n1` (stereo not shown), 1.01 to 5 µM. On to `O=C(Cc1c[nH]c2ccc(O)cc12)N1CCN(CC2CCOC2)CC1c1ncc(-c2ccc3ccccc3c2)[nH]1` (stereo not shown), for which the EC50 lay within 0.51 to 1 µM.

With `COc1ccc2[nH]cc(CC(=O)N3CCN(CC4CCOC4)CC3c3ncc(-c4cc5ccccc5nc4OC)[nH]3)c2c1` (stereo not shown), the EC50 was 0.1 to 0.5 µM. Turning to `COc1ccc2[nH]c(C)c(CC(=O)N3CCN(C)CC3c3ncc(-c4ccc5ccccc5c4)n3C)c2c1` (stereo not shown), the EC50 is 1.01 to 5 µM. On to `COc1ccc2[nH]c(C)c(CC(=O)N3CCN(C)CC3c3ncc(-c4ccccc4)[nH]3)c2c1` (stereo not shown), for which the EC50 is 1.01 to 5 µM. For `COc1ccc2c(CC(=O)N3CCN(CC4CCOC4)CC3c3ncc(-c4cc5ccccc5nc4OC)[nH]3)coc2c1` (stereo not shown), the EC50 is 0.51 to 1 µM. Consider `COc1nc2ccccc2cc1-c1cnc(C2CN(CC3CCOC3)CCN2C(=O)Cc2noc3ccccc23)[nH]1` (stereo not shown), for which the EC50 fell in the range of 0.51 to 1 µM. Consider `O=C(Cc1nc2ccccc2o1)N1CCN(CC2CCOC2)CC1c1ncc(-c2ccc3ccccc3c2)[nH]1` (stereo not shown), for which the EC50 was 0.51 to 1 µM.

With `O=C(Cc1nc2ccccc2o1)N1CCN(CC2CC2)CC1c1ncc(-c2ccc3ccccc3c2)[nH]1` (stereo not shown), the EC50 was in the range of 1.01 to 5 µM. With `COc1ccc2c(c1)C(CC(=O)N1CCN(CC3CC3)CC1c1ncc(-c3ccc4ccccc4c3)[nH]1)C(=O)N2` (stereo not shown), the EC50 lay in the range of 1.01 to 5 µM.

For the compound `COc1ccc2c(c1)C(CC(=O)N1CCN(Cc3ccccc3)CC1c1ncc(-c3ccc4ccccc4c3)[nH]1)C(=O)N2` (stereo not shown), the EC50 fell in the range of 0.51 to 1 µM.

As for `CCCCCCN1CCN(C(=O)CC2C(=O)Nc3ccc(OC)cc32)C(c2ncc(-c3ccc4ccccc4c3)[nH]2)C1` (stereo not shown), the EC50 was in the range of 1.01 to 5 µM.

`CNC(=O)CCCN1CCN(C(=O)Cc2c(C)[nH]c3ccc(OC)cc23)C(c2ncc(-c3ccc4ccccc4c3)[nH]2)C1` (stereo not shown): the EC50 lay within 0.1 to 0.5 µM. The same measure, in the same setting: for `COc1ccc2[nH]c(C)c(CC(=O)N3CCN(CCCC(N)=O)CC3c3ncc(-c4ccc5ccccc5c4)[nH]3)c2c1` (stereo not shown) the value was 0.1 to 0.5 µM; for `COc1ccc2c(c1)C(CC(=O)N1CCN(CC3CCOC3)CC1c1ncc(-c3cc4ccccc4nc3OC)[nH]1)C(=O)N2` (stereo not shown), 1.01 to 5 µM; for `COc1ccc2c(c1)C(CC(=O)N1CCN(CC3CCOC3)CC1c1ncc(-c3ccc4ccccc4c3)[nH]1)C(=O)N2` (stereo not shown), 1.01 to 5 µM. As for `COc1ccc2c(c1)C(CC(=O)N1CCN(CCc3ccccc3)CC1c1ncc(-c3ccc4ccccc4c3)[nH]1)C(=O)N2` (stereo not shown), the EC50 lay within 0.51 to 1 µM. In the case of `COc1ccc2c(c1)C(CC(=O)N1CCN(C)CC1c1ncc(-c3ccc4ccccc4c3)[nH]1)C(=O)N2` (stereo not shown), the concentration for a half-maximal effect (EC50) was 1.01 to 5 µM.

Regarding `CCC(=O)CCCN1CCN(C(=O)Cc2ccccc2)C(c2ncc(-c3cc4ccccc4nc3OC)[nH]2)C1` (stereo not shown), the EC50 was in the range of 1.01 to 5 µM. In the case of `CCC(=O)CCCN1CCN(S(=O)(=O)c2ccc3ccccc3c2)C(c2ncc(-c3ccc4ccccc4c3)[nH]2)C1` (stereo not shown), the EC50 was 1.01 to 5 µM.

Consider `CCC(=O)CCCN1CCN(C(=O)c2cncs2)C(c2ncc(-c3ccc4ccccc4c3)[nH]2)C1` (stereo not shown), for which the concentration for a half-maximal effect (EC50) fell in the range of 1.01 to 5 µM. Still for that read-out and setting: then `CCC(=O)CCCN1CCN(C(=O)C2CCN(C)CC2)C(c2ncc(-c3ccc4ccccc4c3)[nH]2)C1` (stereo not shown), with 1.01 to 5 µM; and `COc1nc2ccccc2cc1-c1cnc(C2CN(CC3CCOC3)CCN2C(=O)c2cc(C)n(Cc3ccccc3)n2)[nH]1` (stereo not shown), with 1.01 to 5 µM. Regarding `COc1nc2ccccc2cc1-c1cnc(C2CN(CC3CCOC3)CCN2C(=O)c2ccc(C3CCCO3)s2)[nH]1` (stereo not shown), the EC50 lay within 1.01 to 5 µM. Regarding `COc1ccc2nc(O)cc(C(=O)N3CCN(CC4CCOC4)CC3c3ncc(-c4cc5ccccc5nc4OC)[nH]3)c2c1` (stereo not shown), the EC50 lay within 1.01 to 5 µM. Take `COc1ccc2c(c1)[C@H](CC(=O)N1CCN(C)CC1c1ncc(-c3ccc4ccccc4c3)[nH]1)C(=O)N2` (stereo partly shown): the EC50 lay within 1.01 to 5 µM. Turning to `COc1ccc(-c2ccc(C(=O)N3CCN(CC4CCOC4)CC3c3ncc(-c4cc5ccccc5nc4OC)[nH]3)o2)cc1` (stereo not shown), the EC50 fell in the range of 1.01 to 5 µM. `COc1nc2ccccc2cc1-c1cnc(C2CN(CC3CCOC3)CCN2C(=O)c2cc3cc(OCc4ccccc4)ccc3[nH]2)[nH]1` (stereo not shown): the EC50 lay within 1.01 to 5 µM. The same measure, in the same setting: for `CO[C@@](C(=O)N1CCN(C)C[C@@H]1c1ncc(-c2ccc3ccccc3c2)[nH]1)(c1ccccc1)C(F)(F)F` the value was 1.01 to 5 µM; for `CN1CCN(C(=O)Cc2ccccc2)[C@H](c2ncc(-c3ccc4ccccc4c3)[nH]2)C1`, 1.01 to 5 µM; for `CO[C@](C(=O)N1CCN(C)C[C@@H]1c1ncc(-c2ccc3ccccc3c2)[nH]1)(c1ccccc1)C(F)(F)F`, 1.01 to 5 µM.
